In PMC4525181, “Structural and dynamic insights into the energetics of activation loop rearrangement in FGFR1 kinase” (Nature Communications, 2015):
Values joined by “and” are separate entries in the source; they are usually repeats but may differ in a detail not shown here. Equal entries are not always repeated. Where two headings read alike, the source gives them in different places.

Columns and labels:
N550K mutation in FGFR2 = conditions: N550K mutant relative to wild-type, BaF3 cells; cited from earlier work
FGFR1 Asp623Ala mutant = target: T1, FGFR1 Asp623Ala mutant (Homo sapiens, UniProt P11362, C488A/C584S/D623A); experiment: SPR binding to Asp623Ala mutant of FGFR1 kinase domain; conditions: data not shown
T1 construct: a construct spanning residues Ala458 to Glu765 of human FGFR1; made in house; host or cells: Escherichia coli
T1 sequence (P11362 458-765 C488A/C584S/D623A): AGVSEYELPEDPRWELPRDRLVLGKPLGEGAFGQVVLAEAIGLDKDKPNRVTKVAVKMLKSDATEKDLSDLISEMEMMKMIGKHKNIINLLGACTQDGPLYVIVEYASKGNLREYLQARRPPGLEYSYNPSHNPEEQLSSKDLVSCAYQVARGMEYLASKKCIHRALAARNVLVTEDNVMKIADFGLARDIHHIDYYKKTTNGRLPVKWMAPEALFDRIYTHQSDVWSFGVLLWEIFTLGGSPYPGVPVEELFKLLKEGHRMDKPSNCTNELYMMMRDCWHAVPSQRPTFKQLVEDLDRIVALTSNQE
Text: For our studies of the FGFR1 kinase domain, we have used a construct spanning residues Ala458 to Glu765 of human FGFR1 that contains two mutations (Cys488Ala and Cys584Ser) designed to stabilize the enzyme against covalent aggregation. The protein is non-phosphorylated after co-expression with PTP1B and purification from Escherichia coli. An additional mutation of the catalytic aspartate (Asp623Ala) was introduced for NMR studies to increase further the yield of stable isotope-labelled protein. […] In addition, we have confirmed using surface plasmon resonance (SPR) that binding parameters for a close analogue of the canonical FGFR1 inhibitor PD173074 (ref. [23]; henceforth referred to as PDA; Fig. 1a; Supplementary Fig. 1) are unaltered for the Asp623Ala mutant relative to the kinase-active form (data not shown).

FGFR1 kinase domain [1] = target: T2, FGFR1 kinase domain (Homo sapiens, UniProt P11362, C488A/C584S); experiment: Transition state thermodynamics from linear Eyring plots (SPR rate constants vs temperature); type: binding; conditions: Eyring analysis
T2 construct: Human FGFR1 consisting of residues Ala458-Glu765; made in house; host or cells: Escherichia coli, co-expressed with PTP1B
T2 sequence (P11362 458-765 C488A/C584S): as the sequence (P11362 458-765 C488A/C584S/D623A) above, with A166D counted along it
Protocol: (§1) Binding affinities (KD) were therefore determined from dosage experiments and binding responses at equilibrium were fit to a 1:1 steady-state affinity model available within the Scrubber 2 software (BioLogic Software Ltd., Campbell, Australia).
(§2) Transition state thermodynamic quantities were determined from the kinetic association (kon) and dissociation (koff) rate constants as previously described[64] by plotting ln (kh/kBT) versus 1/T according to the linear Eyring equation (2).
Here k is either the association rate constant (kon) or the dissociation rate constant (koff). ΔH and ΔS are the changes in […] enthalpy and entropy of binding, respectively, while the superscript ‘*' denotes that these refer to a transition state.

FGFR1 kinase domain [2] = target: T2, FGFR1 kinase domain; experiment: SPR thermodynamic analysis (non-linear van't Hoff); type: binding; conditions: T0=298 K, SPR temperature dependence
Protocol: as §1, §2

FGFR1 kinase domain [3] = target: T2, FGFR1 kinase domain; experiment: SPR kinetic analysis of inhibitors binding to FGFR1 kinase domain
Protocol: The hexa-histidine tag was cleaved from protein by overnight treatment with TEV protease and concomitant dialysis, immediately after the IMAC step. Purified protein in a buffer comprising 20 mM Tris-HCl, pH 8.0, 20 mM NaCl, 2 mM TCEP, was snap frozen in liquid nitrogen and stored at −80 °C. For NMR studies, an additional mutation (Asp623Ala) was introduced to improve the yield of stable isotope-labelled FGFR1 kinase protein[22]. Uniform isotopic labelling was achieved by growing E. coli BL21 (DE3) Star cells in D2O-based M9 minimal medium supplemented with ^15NH4Cl (Cambridge Isotope Laboratories or Sigma Aldrich) together with U-[^1H,^13C]- or (for fully deuterated samples) U-[^2H,^13C]-glucose (Cambridge Isotope Laboratories or Sigma Aldrich) as sole nitrogen and carbon sources, respectively. Purification was by IMAC and ion exchange chromatography; the 6 × His tag was not cleaved from the protein used for NMR. Human Abl consisting of residues Ser248-Val534 with an engineered TEV-cleavable N-terminal 6 × His tag and mutation Asn355Ser was expressed and purified as described[50] with minor modifications. For biophysical studies, the 6 × His tag was retained intact for both kinases as it was used for immobilization on a nitrilotriacetic acid (NTA) sensor chip.
Non-phosphorylated, histidine-tagged FGFR1 and non-phosphorylated, histidine-tagged Abl were immobilized as the ligand onto NTA sensor chips using a capture coupling method. The NTA surface was first activated with 500 μM NiSO4 in immobilization buffer. The carboxymethyl dextran surface was then activated with a 1:1 ratio of 0.4 M EDC and 0.1 M NHS. Hexa-histidine-tagged protein was diluted into immobilization buffer to a concentration of 30 μg ml^−1, and immobilized onto the surface with a 7-min injection. Remaining activated groups were blocked with 0.1 M Tris, pH 8.0. […] PBS, pH 7.4, 50 μM EDTA and 0.05% Surfactant P20 (v/v) (for Abl supplemented with 10% glycerol (v/v)) were used as immobilization buffer. […] SPR experiments were performed using the Biacore 3000, Biacore S51 and Biacore T200 biosensors (GE Healthcare), with NTA and series S NTA sensor chips (GE Healthcare). All FGFR1 binding experiments were done using PBS (pH range 7.0–7.4), 50 μM EDTA, 0.05% Surfactant P20 (v/v) and 1% DMSO (v/v) or 50 mM Bis-Tris (pH range 5.5–6.5), 100 mM NaCl, 50 μM EDTA, 0.05% Surfactant P20 (v/v) and 1% DMSO (v/v), as running buffer. All Abl binding experiments were conducted using PBS, pH 7.4, 50 μM EDTA, 0.05% Surfactant P20 (v/v), 10% glycerol (v/v) and 1% DMSO (v/v) as running buffer. […] Finally, they were diluted 1:100 (v/v) in running buffer without DMSO to achieve the target concentration resulting in a final DMSO concentration of 1% (v/v).
The highest compound concentration varied, but for all analytes five sequential injections with constant injection time and a constant dilution factor were done. All analyte concentrations were injected in one cycle, one after the other for 120 s with a short dissociation phase in between injections (∼60 s) and with a longer dissociation phase at the end of the cycle (1,000 to 20,000 s that varied depending on the expected dissociation rate constant of the analyte). Zero-buffer blank injections were included for referencing. Biacore T200 evaluation software and BIAevaluation 4.1 software, respectively, were used for processing and analysing data. Rate constants were calculated globally from the obtained sensorgram data by fitting to a 1:1 interaction model. Representative sensorgrams are shown in Supplementary Fig. 6. Multi-cycle kinetic analysis was carried out as previously described. Binding affinities (KD) were calculated from the equation KD=koff/kon.

FGFR1 kinase domain [4] = target: T2, FGFR1 kinase domain; experiment: Isothermal titration calorimetry (ITC) of inhibitors binding to FGFR1; conditions: for heat capacity change ΔCp: ITC titrations at 10-35 °C, slope of ΔH vs T; for -TΔS (ITC) / N (ITC stoichiometry) / ΔG (ITC) / ΔH (ITC): 298.15 K
Protocol: ITC experiments were carried out using an ITC200 instrument (Microcal Inc., GE Healthcare)[59]. Final ligand concentrations were achieved by diluting ligand stock solutions in DMSO 1:50 (v/v) in the experimental buffer, resulting in a final DMSO concentration of 2% (v/v). Protein concentration was determined by measuring the absorbance at 280 nm. DMSO concentration in the protein solution was adjusted to 2% (v/v). ITC measurements were routinely performed at 25 °C in 20 mM Tris, pH 7.8, 20 mM NaCl, 2 mM TCEP and 2% DMSO (v/v). The titrations were performed on 10−20 μM FGFR1 in the 200 μl sample cell using 2 μl injections of 0.1−0.2 mM ligand solution every 120 s. To correct for heats of dilution and mixing, the final baseline consisting of small peaks of identical size at the end of the experiment was subtracted. Representative ITC titrations are shown in Supplementary Fig. 2. To determine the heat capacity ΔCp of ligands binding to FGFR1, ITC titrations were performed as described above at 10, 15, 20, 25, 30 and 35 °C. Binding enthalpies derived from ITC experiments were plotted as ΔH against T and ΔCp are given by the slope of the linear regression analysis according to equation (3) (Supplementary Fig. 7): […]

Asp641 = Asp641 (UniProt position 641, VMKIADFGLAR); experiment: kinetics (surface plasmon resonance); conditions: 298 K; PBS (pH 7.0-7.4) or 100 mM NaCl with 50 mM Bis-Tris (pH 5.5-6.5); PBS (pH 7.0-7.4) or 50 mM Bis-Tris (pH 5.5-6.5) with 100 mM NaCl. Both contain 50 µM EDTA, 0.05% Surfactant P20 and 1% DMSO.; Non-phosphorylated, initially ligand-free FGFR1 kinase domain immobilised on an NTA chip. The rate reports on the DFG-in to DFG-out transition required for ponatinib binding.

| ΔG0 van't Hoff (FGFR1 kinase domain [2]) | −TΔS0 van't Hoff (FGFR1 kinase domain [2]) | heat capacity change ΔCp (FGFR1 kinase domain [4]) | -TΔS (ITC) (FGFR1 kinase domain [4]; ITC) | N (ITC stoichiometry) (FGFR1 kinase domain [4]; ITC) | ΔG (ITC) (FGFR1 kinase domain [4]; ITC) | Compound | effect of FGFR2 N550K mutation on inhibitor potency (N550K mutation in FGFR2) | ΔH0 van't Hoff (FGFR1 kinase domain [2]) | ΔH (ITC) (FGFR1 kinase domain [4]; ITC) | further results |
| --- | --- | --- | --- | --- | --- | --- | --- | --- | --- | --- |
| – | – | – | – | – | – | CCN(CC)CCCCNc1ncc2cc(-c3cc(OC)cc(OC)c3)c(NC(=O)NC(C)(C)C)nc2n1 [PD173074] | confers resistance | – | – | – |
| -11.1 ± 0.02 kcal/mol | 0.4 ± 0.8 kcal/mol | -359 cal mol^−1 K^−1 | 1.1 ± 0.0 kcal/mol | 0.8±0.02 | -11.0 ± 0.0 kcal/mol | CCN(CC)CCCNc1ncc2cc(-c3cc(OC)cc(OC)c3)c(NC(=O)NC(C)(C)C)nc2n1 [PDA] | – | -11.5 kcal/mol and -11.5 ± 0.8 kcal/mol | -12.1 kcal/mol and -12.1 ± 1.8 kcal/mol | binding parameters for Asp623Ala mutant relative to the kinase-active form (FGFR1 Asp623Ala mutant): unaltered; ΔG# ass (transition state free-energy barrier, association) (FGFR1 kinase domain [1]; association phase): 8.7 ± 1.8 kcal/mol and 8.7 kcal/mol; ΔH# ass (transition state enthalpy, association) (FGFR1 kinase domain [1]; association phase): 16.6 ± 1.3 kcal/mol and 16.6 kcal/mol; −TΔS# ass (transition state entropy, association) (FGFR1 kinase domain [1]; association phase): -7.9 ± 1.3 kcal/mol and -7.9 kcal/mol; -TΔS# diss (FGFR1 kinase domain [1]; dissociation phase): -5.3 ± 1.8 kcal/mol; ΔG# diss (FGFR1 kinase domain [1]; dissociation phase): 19.5 ± 2.6 kcal/mol; ΔH# diss (FGFR1 kinase domain [1]; dissociation phase): 24.8 ± 1.8 kcal/mol; KD, fold weaker in the presence of 1.2 M GdmCl (FGFR1 kinase domain [3]; 1.2 M GdmCl vs absence of GdmCl): ~2 fold; association rate constant as a function of pH (FGFR1 kinase domain [3]; SPR 298 K, pH decreased from 7.4 to 5.5): no dependence on pH; kon (FGFR1 kinase domain [3]; SPR, 1.2 M GdmCl in PBS running buffer, read-out: association rate constant kon in the presence of 1.2 M GdmCl): 680000 M⁻¹ s⁻¹; koff (FGFR1 kinase domain [3]; SPR, 1.2 M GdmCl in PBS running buffer, read-out: dissociation rate constant koff in the presence of 1.2 M GdmCl): 0.0018 s⁻¹; Kd (FGFR1 kinase domain [3]; SPR, 298 K, pH 7.4, read-out: KD (koff/kon)): 5.7 nM; kon (FGFR1 kinase domain [3]; SPR, 298 K, pH 7.4, read-out: association rate constant kon): 1.6e+06 M⁻¹ s⁻¹; koff (FGFR1 kinase domain [3]; SPR, 298 K, pH 7.4, read-out: dissociation rate constant koff): 0.0092 s⁻¹; Kd (FGFR1 kinase domain [4]; ITC, 298 K): 8.8 nM |
| – | – | – | – | – | – | Cc1ccc(C(=O)Nc2ccc(CN3CCN(C)CC3)c(C(F)(F)F)c2)cc1C#Cc1cnc2cccnn12 [ponatinib] | enhanced inhibitory potency against this mutant relative to wild-type | – | – | – |
| – | – | – | – | – | – | Fibroblast growth factor receptor 1 (FGFR1) kinase domain (Homo sapiens; C488A;C584S) | – | – | – | pKa (Asp641): 6.25 |
| -9.5 ± 0.02 kcal/mol | 4.8 ± 0.8 kcal/mol | -172 cal mol^−1 K^−1 | 2.7 ± 0.2 kcal/mol | 1.0±0.04 | -9.7 ± 0.1 kcal/mol | SU5402 | – | -14.2 kcal/mol and -14.2 ± 0.8 kcal/mol | -12.4 kcal/mol and -12.4 ± 0.2 kcal/mol | – |
